Reference: patent US7973018B2, “Cell cycle arrest and apoptosis” (University of Utah Research Foundation, priority 2004, dated 2011)
Entries after “also recorded” stand apart in the source; their conditions may differ.

Key:
ATR and ATM = conditions: references 40, 53; cited from earlier work
ATM and ATR = conditions: vpr-infected cells; references 5, 53; cited from earlier work
BRCA1 [1] = assay: Western blot for BRCA1 phospho-serine 1423; format: cell-based, human; conditions: HeLa cells infected with pHR-VPR, 48 hours post-transduction
Protocol: Western blotting procedures. All western blots were performed using the BioRad Criterion gel system (BioRad, Hercules, Calif.). Antibodies used were GADD45 (Santa Cruz Biotechnology, Santa Cruz, Calif.; sc-797), Actin (Santa Cruz Biotechnologies, Santa Cruz, Calif.; sc-797), CHK2 (Santa Cruz Biotechnology, Santa Cruz, Calif.; sc-8813), ATM (Novus Biologicals, Littleton, Colo.; catalog #100-104H1), phospho-JNK-Tyr183 (Cell Signaling Technology, Beverly, Mass.; catalog #9255S), phospho-p38 kinase (Promega, Madison; 15823207), JNK (Cell Signaling Technology, Beverly, Mass.; 9252), ATR (obtained from Dr. Paul Nghiem, Harvard), anti-rabbit secondary-HRP (Santa Cruz Biotechnology, Santa Cruz, Calif.; sc-2030), anti-goat secondary-HRP (Santa Cruz Biotechnology, Santa Cruz, Calif.; sc-2033), PARP (Cell Signaling Technology, Beverly, Mass.), BRCA1 phospho ser1423 (Bethyl Laboratories, Montgomery, Tex.) Rabbit primary antibodies against Rad17 (Santa Cruz Biotechnology, Santa Cruz, Calif.), and were applied for 90 min at room temperature. Blots were washed three times in TPBS (0.1% Tween 20 in PBS) for 10 min each time at room temperature.
Phosphorylation of BRCA1 at serine 1423 by HIV-1 Vpr is ATR-dependent. Following DNA damage, ATR phosphorylates BRCA1 at serine 1423 (45, 63). […]

γ-H2AX = γ-H2AX focus formation, immunofluorescence confocal microscopy; format: cell-based, human
Protocol: (§1) Immunofluorescence staining. HeLa cells were harvested 48 h posttransduction by trypsinization. Single-cell suspensions of minced thymic tissue were prepared for immunostaining 20 h after HIV-1NL4-3 infection. Cells were fixed with 2% paraformaldehyde in phosphate-buffered saline (PBS) for 35 min at 4° C. and then washed three times for 5 min each time in PBS. All subsequent steps were carried out at room temperature. Samples were blocked and permeabilized for 20 min in blocking buffer (3% bovine serum albumin (BSA), 0.2% Triton X-100, and 0.01% skim milk in PBS). Primary antibody (rabbit anti-γ-H2AX (48) or rabbit anti-BRCA1 (Bethyl Laboratories, Montgomery, Tex.)) was diluted 1:400 in incubation buffer (1% BSA and 0.02% Triton X-100 in PBS) and incubated with cells for 45 min. Cells were washed with PBS, after which secondary antibody (goat anti-rabbit immunoglobulin G (IgG)-AlexaFluor568 conjugate (Molecular Probes, Eugene, Oreg.)) diluted 1:500 in incubation buffer was applied for 35 min. Cells were washed with PBS as before and mounted on glass slides by using Fluor Save reagent (CalBiochem, San Diego, Calif.). Cells were visualized for γ-H2AX or BRCA1 immunostaining and green fluorescent protein (GFP) expression by scanning fluorescence confocal microscopy (FluoView FV300; Olympus, Melville, N.Y.).
(§2) Drug treatment. Cells were incubated with 10 mM hydroxyurea (HU) for 2 h before immunostaining was done.
(§3) Vpr expression induces γ-H2AX and BRCA1 focus formation. It was possible that Vpr, through ATR activation, would induce γ-H2AX (9) and BRCA1 (45) focus formation. To test this hypothesis, HeLa cells were infected with pHR-Vpr or pHR-GFP and, 48 h later, immunostained with γ-H2AX- or BRCA1-specific antibodies. As a positive control, nontransduced cells were treated for […] with 10 mM HU 10 min prior to immunostaining (46). Samples then were visualized by fluorescence scanning confocal microscopy (FIGS. 3A and B). Cells with multiple (10 or more), intense nuclear foci were manually counted. […]

HeLa cells = assay: Cell cycle analysis (G2 arrest) by flow cytometry in HeLa cells; format: cell-based, human; parameters: key: P, phosphorylated; A, activated; N, necessary for G2 checkpoint activation; F, focus formation; ?, unknown; D, dispensable for G2 checkpoint activation; conditions: ATR target Rad17; this work
Protocol: Cell cycle analysis. At 48 h after infection, cells were detached by trypsinization, washed with fluorescence-activated cell sorting (FACS) buffer (2% FBS and 0.02% sodium azide in PBS), fixed with 2% paraformaldehyde in PBS, and permeabilized with 0.01% Triton X-100 in PBS for 15 min. Cells were washed again with FACS buffer, incubated in DNA staining buffer (10 μg of propidium iodide/ml and 11.25 kU of RNase A/ml in FACS buffer) for 15 min, and analyzed by FACScan flow cytometry for GFP expression or DNA content (Beckton Dickinson, Franklin Lakes, N.J.). In experiments involving transduction with lentivirus vectors, experiments with 90% transduction efficiency or higher were analyzed. […]
Lentivirus vectors. […] Vector titers were measured by infection of HeLa cells as described herein, followed by flow cytometric analysis of cells that were positive for the reporter molecule, GFP. Vector titers were calculated with the equation [(F×C0)/V]×D, where F is the frequency of GFP-positive cells found by flow cytometry, C0 is the total number of target cells at the time of infection, V is the volume of inoculum, and D is the virus dilution factor. […]
Rad17 is necessary for Vpr-mediated G2 arrest. […] At 48 h after transduction, cells were analyzed by flow cytometry for infection efficiency and DNA content, as reported by GFP expression and propidium iodide staining, respectively. […]

BRCA1 [2] = assay: BRCA1 focus formation, immunofluorescence confocal microscopy; format: cell-based, human
Protocol: as §1, §2, §3

p53 = tested on: p53; parameters: key: P, phosphorylated; A, activated; N, necessary for G2 checkpoint activation; F, focus formation; ?, unknown; D, dispensable for G2 checkpoint activation; conditions: ATR target p53; reference 41; cited from earlier work
Chk1 = conditions: ATR target Chk1; reference 40; cited from earlier work
[3] = HeLa cells, 48 h after infection, 10 or more intense nuclear foci
[4] = nontransduced HeLa cells treated for 1 h with 10 mM HU

## Cn1c(=O)c2c(ncn2C)n(C)c1=O [caffeine]
ATR and ATM
  relief of Vpr-induced G2 arrest: completely relieve Vpr-induced G2 arrest
ATM and ATR
  effect on Vpr-induced apoptosis: largely eliminated induction of apoptosis; also recorded: significantly reduces Vpr-induced apoptosis

## Vpr: HIV-1 accessory protein Vpr, expressed in cells from pHR-Vpr
BRCA1 [1]
  phosphorylation of BRCA1 at serine 1423: induced phosphorylation of BRCA1 at serine 1423
γ-H2AX; ATR target H2AX, this work
  Status in the presence of Vpr (reference or source): H2AX: P, F (this work)
γ-H2AX; [3]
  cells exhibiting γ-H2AX foci: Approximately 93%
HeLa cells
  Status in the presence of Vpr (reference or source): Rad17: N (this work)
BRCA1 [2]; ATR target BRCA1, this work
  Status in the presence of Vpr (reference or source): BRCA1: P, F (this work)
BRCA1 [2]; [3]
  cells exhibiting BRCA1 foci: ~69%
p53
  Status in the presence of Vpr (reference or source): p53: D (41)
Chk1
  Status in the presence of Vpr (reference or source): Chk1: P, A (40)

## NC(=O)NO [HU, hydroxyurea, reference compound]
γ-H2AX; [4]
  cells exhibiting γ-H2AX foci: Approximately 94%
BRCA1 [2]; [4]
  cells exhibiting BRCA1 foci: ~65%
